{"source": "patent US20110251213A1", "about": "“Cosmetic Use of 1-Aroyl-N-(2-oxo-3-piperidinyl)-2-Piperazine Carbomamides and Related Compounds” (Avon Products, Inc., priority 2008, published 2011)", "key": {"Desmoglein 1": {"tested_on": "Desmoglein 1", "details": "keratinocytes", "protocol": "Normal human keratinocytes were cultured in 96 well tissue culture treated plates in Epilife medium with growth supplements (Cascade Biologics Inc.). Cells were treated with test material or a dimethylsulfoxide vehicle control diluted in growth medium for 24 hours in a humidified 37° C. incubator with 10% CO2. After incubation, growth medium from each plate was removed and 100 μl of lysis buffer was added to each of the wells and placed in the humidified 37° C. incubator with 10% CO2 for 30 minutes. At the end of the incubation period, the cells were collected in freezer plates and placed in a −80° C. freezer, until analysis. Changes in mRNA for Desmoglein 3 (DSG3) after treatment were analysed using Panomics Quantigene multiplex assay that employs branched DNA technology."}, "procollagen 1": {"tested_on": "procollagen 1", "details": "human dermal fibroblasts, 5 μg/ml, 48 hours", "protocol": "Human dermal fibroblasts (Cascade Biologics) were cultured in 96-well tissue culture plates in growth medium (DMEM, 5% FBS, 1% L-Glut, and 1% antibiotics) and incubated for 24 hours at 37° C. […] Procollagen 1 levels were assayed using an ELISA kit from Takara (Procollagen Type-1 C-Peptide EIA Kit, Takara Bio Inc.) as per manufacturer's instructions."}, "Dermatopontin": {"tested_on": "Dermatopontin", "details": "fibroblasts, 24 hours, p<0.05", "protocol": "Normal human dermal fibroblasts were cultured in 96 well tissue culture treated plates, containing appropriate culture medium. Cells were treated with 1-aroyl-N-(2-oxo-3-piperidinyl)-2-piperazine carboxamide test material, diluted in growth medium, for 24 hours in a humidified 37° C. incubator with 10% CO2. After incubation, growth medium from each plate was removed and 100 μl of lysis buffer was added to the wells and placed in 37° C. incubator with10% CO2 for 30 minutes. At the end of incubation, the cells were collected in freezer plates and placed in −80° C. freezer, until analysis. Changes in mRNA for Dermatopontin after treatment were analysed using Panomics Quantigene multiplex assay that employs a branched DNA technology."}}, "note": "Read-outs that look alike come from different tables or passages of the source."}
{"substance": "1-aroyl-N-(2-oxo-3-piperidinyl)-2-piperazine carboxamide", "values": [{"measurement": "increase in Desmoglein 1 expression", "setting": "Desmoglein 1; 0.00005% of the test material, 24 hours", "value": "did not show a statistically significant increase"}, {"measurement": "increase in Desmoglein 1 expression", "setting": "Desmoglein 1; concentration of 0.0005%, after 24 hours, average of three samples, p<0.05", "value": 95, "unit": "%"}, {"measurement": "increase in collagen synthesis compared to control", "setting": "procollagen 1", "value": 75.4, "unit": "%"}, {"measurement": "stimulation in mRNA levels for Dermatopontin", "setting": "Dermatopontin; 0.00005%", "value": 43, "unit": "%"}, {"measurement": "stimulation in mRNA levels for Dermatopontin", "setting": "Dermatopontin; 0.0005%", "value": 62, "unit": "%"}]}
